Assay [1] deals with A549 cells. Kind of assay: Apoptosis analysis by flow cytometry. To be noted: 24 h, control 5.16%. The assay is classed as cell-based.
The subject of assay [2] is A549 cells. The assay is described as follows: Cell cycle distribution analysis by flow cytometry. The class given is cell-based. To be noted: 24 h, control 56.06%. In general terms: A flow cytometer gives signals particle by particle.
The target in another assay is c-Met kinase (Homo sapiens, UniProt P08581). The assay is described as follows: c-Met tyrosine kinase mobility shift assay. The assay is classed as biochemical. To be noted: IC50 (μM) c-Met.
Assay [3] concerns A549 cells. Kind of assay: Acridine orange. The assay is classed as cell-based. To be noted: A549, 0.50 μM, 8 h.

Experimental findings from publication PMC7364574 (ACS Omega, 2020) are described below.

Chain of c-Met kinase (P08581 25-1390): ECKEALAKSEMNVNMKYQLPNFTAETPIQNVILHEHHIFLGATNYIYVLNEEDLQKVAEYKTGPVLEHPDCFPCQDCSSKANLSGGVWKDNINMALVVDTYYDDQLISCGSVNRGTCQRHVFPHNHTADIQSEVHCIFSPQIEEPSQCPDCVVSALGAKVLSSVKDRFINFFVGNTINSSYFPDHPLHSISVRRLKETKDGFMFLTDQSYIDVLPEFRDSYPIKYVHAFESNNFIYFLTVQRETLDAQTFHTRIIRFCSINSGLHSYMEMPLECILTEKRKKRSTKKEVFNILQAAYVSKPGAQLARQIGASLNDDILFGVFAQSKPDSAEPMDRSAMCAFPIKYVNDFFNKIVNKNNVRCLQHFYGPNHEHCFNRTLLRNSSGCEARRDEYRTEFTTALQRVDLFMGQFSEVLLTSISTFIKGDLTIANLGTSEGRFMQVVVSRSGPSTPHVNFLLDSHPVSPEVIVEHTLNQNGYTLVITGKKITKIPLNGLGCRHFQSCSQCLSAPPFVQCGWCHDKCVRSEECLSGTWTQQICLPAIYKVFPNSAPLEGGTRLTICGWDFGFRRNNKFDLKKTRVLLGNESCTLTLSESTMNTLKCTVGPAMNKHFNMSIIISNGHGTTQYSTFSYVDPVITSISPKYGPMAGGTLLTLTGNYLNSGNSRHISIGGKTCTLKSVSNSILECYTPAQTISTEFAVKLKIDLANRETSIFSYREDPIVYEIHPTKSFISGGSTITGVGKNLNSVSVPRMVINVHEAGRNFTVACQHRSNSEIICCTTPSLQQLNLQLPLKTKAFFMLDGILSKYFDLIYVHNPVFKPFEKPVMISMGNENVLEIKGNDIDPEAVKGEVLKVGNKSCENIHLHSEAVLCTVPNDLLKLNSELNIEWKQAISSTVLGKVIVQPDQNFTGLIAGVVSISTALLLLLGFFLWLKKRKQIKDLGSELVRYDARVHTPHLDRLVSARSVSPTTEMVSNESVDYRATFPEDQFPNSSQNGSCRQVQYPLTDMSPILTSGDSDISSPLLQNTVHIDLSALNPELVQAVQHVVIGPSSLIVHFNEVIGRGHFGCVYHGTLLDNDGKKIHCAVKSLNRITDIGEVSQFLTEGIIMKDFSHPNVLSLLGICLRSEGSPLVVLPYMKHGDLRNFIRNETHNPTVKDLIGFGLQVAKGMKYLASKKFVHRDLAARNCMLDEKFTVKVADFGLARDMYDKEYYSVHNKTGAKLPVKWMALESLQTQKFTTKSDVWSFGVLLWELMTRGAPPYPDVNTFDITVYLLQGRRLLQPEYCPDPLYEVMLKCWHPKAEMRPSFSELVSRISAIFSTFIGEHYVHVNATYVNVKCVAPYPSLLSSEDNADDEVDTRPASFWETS

A word on the IC50: it is the concentration at which inhibition is half-maximal. Regarding `Cc1cc(Oc2ccc(NC(=O)c3sc(-c4ccccn4)nc3C)cc2)c2nncn2n1` [12e, 4-Methyl-N-(4-((6-methyl-[1,2,4]triazolo[4,3-b]pyridazin-8-yl)oxy)phenyl)-2-(pyridin-2-yl)thiazole-5-carboxamide], the total apoptosis rate in the assay on A549 cells [1] (A549, 3.75 μM) is on record as 13.73%; in the assay on A549 cells [1] (A549, 7.50 μM), 24.87%; in the assay with A549 cells [1] (A549, 15.00 μM), 35.87%. Further, the G0/G1 phase population with A549 cells [2] (A549, 3.75 μM) is listed as 60.25%; in the assay on A549 cells [2] (A549, 7.50 μM), 66.32%; in the assay on A549 cells [2] (A549, 15.00 μM), 76.84%. Moreover, on c-Met kinase, the IC50 lay in the range of 0.09 to 0.21 µM. In addition, in the assay with A549 cells [3], the “induction of apoptosis, AO staining” value is listed as “significant effect on inducing apoptosis”.
On to `Cc1cc(Oc2ccc(NC(=O)c3cnn(-c4ccc(Cl)cc4)c3C(F)(F)F)cc2F)c2nncn2n1` [13b, 1-(4-Chlorophenyl)-N-(3-fluoro-4-((6-methyl-[1,2,4]triazolo[4,3-b]pyridazin-8-yl)oxy)phenyl)-5-(trifluoromethyl)-1H-pyrazole-4-carboxamide], for which, on c-Met kinase, the IC50 lay in the range of 0.09 to 0.21 µM.
